Key:
[1] = Therapeutic index, ratio of LD50 for toxicity in iv dosed Kunming mouse assessed as lethal dose to ED50 for anesthetic activity in iv dosed Kunming mouse; type: organism-based; settings: in vivo, read-out: Ratio LD50/ED50
Mus musculus [2] = test: Anesthetic activity in iv dosed Kunming mouse by up and down method; type: functional
Mus musculus [3] = test: Anesthetic activity in Kunming mouse assessed as reappearance of flip reflex by measuring duration time administered as single bolus dose; type: functional; also: test concentration or dose not given here
Mus musculus [4] = test: Anesthetic activity in Kunming mouse assessed as disappearance of flip reflex by measuring onset time administered as single bolus dose; type: functional
[5] = Toxicity in iv dosed Kunming mouse assessed as lethal dose; type: organism-based; settings: in vivo

## CC(C)c1cccc(C(C)C)c1O [PROPOFOL]
[1]
  selectivity ratio: 2.7
Mus musculus [2]
  ED50: 0.6 mg/kg
Mus musculus [3]
  Time: 57 s
Mus musculus [4]
  Time: 15 s
[5]
  LD50: 1600 µmol/kg

## CC(C)c1cccc(C(C)C)c1OC(=O)CCCOC(=O)CN1CCOCC1.Cl
[1]
  selectivity ratio: 4.8
Mus musculus [2]
  ED50: 8.2 mg/kg
Mus musculus [3]
  Time: 434 s
Mus musculus [4]
  Time: 19 s
[5]
  LD50: 39600 µmol/kg

## CC1CCN(CCC(=O)Oc2c(C(C)C)cccc2C(C)C)CC1.Cl
[1]
  selectivity ratio: 4.2
Mus musculus [2]
  ED50: 9.2 mg/kg
Mus musculus [3]
  Time: 179 s
Mus musculus [4]
  Time: 41 s
[5]
  LD50: 38900 µmol/kg

## CC1CCCN(CC(=O)OCCCC(=O)Oc2c(C(C)C)cccc2C(C)C)C1.Cl (stereo not given)
[1]
  selectivity ratio: 5.1
Mus musculus [2]
  ED50: 2.9 mg/kg
Mus musculus [3]
  Time: 547 s
Mus musculus [4]
  Time: 16 s
[5]
  LD50: 14700 µmol/kg

## CC1CCCN(CC(=O)Oc2c(C(C)C)cccc2C(C)C)C1.Cl (stereo not given)
[1]
  selectivity ratio: 2.3
Mus musculus [2]
  ED50: 1.7 mg/kg
Mus musculus [3]
  Time: 172 s
Mus musculus [4]
  Time: 27 s
[5]
  LD50: 3900 µmol/kg

## CC(C)c1cccc(C(C)C)c1OC(=O)CCCOC(=O)CN1CCCCC1.Cl
[1]
  selectivity ratio: 4.8
Mus musculus [2]
  ED50: 8.3 mg/kg
Mus musculus [3]
  Time: 440 s
Mus musculus [4]
  Time: 27 s
[5]
  LD50: 39800 µmol/kg

## CC1CCN(CC(=O)OCCCC(=O)Oc2c(C(C)C)cccc2C(C)C)CC1.Cl
[1]
  selectivity ratio: 4.8
Mus musculus [2]
  ED50: 3.6 mg/kg
Mus musculus [3]
  Time: 362 s
Mus musculus [4]
  Time: 8 s
[5]
  LD50: 17600 µmol/kg

## CC(C)c1cccc(C(C)C)c1OC(=O)CCCOC(=O)CCCN1CCCCC1C.Cl (stereo not given)
[1]
  selectivity ratio: 5.2
Mus musculus [2]
  ED50: 6.2 mg/kg
Mus musculus [3]
  Time: 412 s
Mus musculus [4]
  Time: 9 s
[5]
  LD50: 32100 µmol/kg

## CC(C)c1cccc(C(C)C)c1OC(=O)CCN1CCCC1.Cl
[1]
  selectivity ratio: 2.6
Mus musculus [2]
  ED50: 15.1 mg/kg
Mus musculus [3]
  Time: 180 s
Mus musculus [4]
  Time: 5 s
[5]
  LD50: 3900 µmol/kg

## CC(C)c1cccc(C(C)C)c1OC(=O)CCN1CCOCC1.Cl
[1]
  selectivity ratio: 3.6
Mus musculus [2]
  ED50: 12 mg/kg
Mus musculus [3]
  Time: 145 s
Mus musculus [4]
  Time: 16 s
[5]
  LD50: 43800 µmol/kg

## CC(C)c1cccc(C(C)C)c1OC(=O)CCCOC(=O)CCCN1CCOCC1.Cl
[1]
  selectivity ratio: 4.9
Mus musculus [2]
  ED50: 3.6 mg/kg
Mus musculus [3]
  Time: 375 s
Mus musculus [4]
  Time: 7 s
[5]
  LD50: 17500 µmol/kg

## CCN1CCN(CCC(=O)Oc2c(C(C)C)cccc2C(C)C)CC1.Cl
[1]
  selectivity ratio: 3.2
Mus musculus [2]
  ED50: 12 mg/kg
Mus musculus [3]
  Time: 167 s
Mus musculus [4]
  Time: 2 s
[5]
  LD50: 38000 µmol/kg

## CC(C)c1cccc(C(C)C)c1OC(=O)CCCOC(=O)CN1CCCC1.Cl
[1]
  selectivity ratio: 5
Mus musculus [2]
  ED50: 11.3 mg/kg
Mus musculus [3]
  Time: 216 s
Mus musculus [4]
  Time: 18 s
[5]
  LD50: 56500 µmol/kg

## CC1CCN(CC(=O)Oc2c(C(C)C)cccc2C(C)C)CC1.Cl
[1]
  selectivity ratio: 1.6
Mus musculus [2]
  ED50: 11.1 mg/kg
Mus musculus [3]
  Time: 137 s
Mus musculus [4]
  Time: 11 s
[5]
  LD50: 18000 µmol/kg

## CC(C)c1cccc(C(C)C)c1OC(=O)CCN1CCN(C)CC1.Cl
[1]
  selectivity ratio: 3.7
Mus musculus [2]
  ED50: 9 mg/kg
Mus musculus [3]
  Time: 156 s
Mus musculus [4]
  Time: 14 s
[5]
  LD50: 33400 µmol/kg

## CC(C)c1cccc(C(C)C)c1OC(=O)CCCOC(=O)CCCN1CCCCC1.Cl
[1]
  selectivity ratio: 5.1
Mus musculus [2]
  ED50: 2.4 mg/kg
Mus musculus [3]
  Time: 413 s
Mus musculus [4]
  Time: 8 s
[5]
  LD50: 12300 µmol/kg

## CC1CCCN(CCC(=O)Oc2c(C(C)C)cccc2C(C)C)C1.Cl (stereo not given)
[1]
  selectivity ratio: 4.1
Mus musculus [2]
  ED50: 7.1 mg/kg
Mus musculus [3]
  Time: 144 s
Mus musculus [4]
  Time: 18 s
[5]
  LD50: 28700 µmol/kg

## CCCN(CCC)CC(=O)OCCCC(=O)Oc1c(C(C)C)cccc1C(C)C.Cl
[1]
  selectivity ratio: 5.1
Mus musculus [2]
  ED50: 9 mg/kg
Mus musculus [3]
  Time: 402 s
Mus musculus [4]
  Time: 37 s
[5]
  LD50: 45900 µmol/kg

## CCN1CCN(CCCC(=O)OCCCC(=O)Oc2c(C(C)C)cccc2C(C)C)CC1.Cl
[1]
  selectivity ratio: 4.9
Mus musculus [2]
  ED50: 6.5 mg/kg
Mus musculus [3]
  Time: 456 s
Mus musculus [4]
  Time: 11 s
[5]
  LD50: 31900 µmol/kg

## CC(C)c1cccc(C(C)C)c1OC(=O)CN1CCCCC1C.Cl (stereo not given)
[1]
  selectivity ratio: 1.7
Mus musculus [2]
  ED50: 9.2 mg/kg
Mus musculus [3]
  Time: 150 s
Mus musculus [4]
  Time: 27 s
[5]
  LD50: 15800 µmol/kg

## CC(C)c1cccc(C(C)C)c1OC(=O)CCN1CCCCC1C.Cl (stereo not given)
[1]
  selectivity ratio: 4.1
Mus musculus [2]
  ED50: 14 mg/kg
Mus musculus [3]
  Time: 154 s
Mus musculus [4]
  Time: 2 s
[5]
  LD50: 57700 µmol/kg

## CC(C)c1cccc(C(C)C)c1OC(=O)CCCOC(=O)CN1CCCCC1C.Cl (stereo not given)
[1]
  selectivity ratio: 4.8
Mus musculus [2]
  ED50: 13 mg/kg
Mus musculus [3]
  Time: 317 s
Mus musculus [4]
  Time: 9 s
[5]
  LD50: 62800 µmol/kg

## CCCN(CCC)CCCC(=O)OCCCC(=O)Oc1c(C(C)C)cccc1C(C)C.Cl
[1]
  selectivity ratio: 5.2
Mus musculus [2]
  ED50: 9.2 mg/kg
Mus musculus [3]
  Time: 536 s
Mus musculus [4]
  Time: 21 s
[5]
  LD50: 48100 µmol/kg

## CCN1CCN(CC(=O)Oc2c(C(C)C)cccc2C(C)C)CC1.Cl
[1]
  selectivity ratio: 1.4
Mus musculus [2]
  ED50: 8 mg/kg
Mus musculus [3]
  Time: 139 s
Mus musculus [4]
  Time: 13 s
[5]
  LD50: 11500 µmol/kg

## CC1CCCN(CCCC(=O)OCCCC(=O)Oc2c(C(C)C)cccc2C(C)C)C1.Cl (stereo not given)
[1]
  selectivity ratio: 5.6
Mus musculus [2]
  ED50: 1.9 mg/kg
Mus musculus [3]
  Time: 571 s
Mus musculus [4]
  Time: 11 s
[5]
  LD50: 10700 µmol/kg

## CCN(CC)CCC(=O)Oc1c(C(C)C)cccc1C(C)C.Cl
[1]
  selectivity ratio: 3.5
Mus musculus [2]
  ED50: 17 mg/kg
Mus musculus [3]
  Time: 162 s
Mus musculus [4]
  Time: 3 s
[5]
  LD50: 58800 µmol/kg

## CCN(CC)CCCC(=O)OCCCC(=O)Oc1c(C(C)C)cccc1C(C)C.Cl
[1]
  selectivity ratio: 5.1
Mus musculus [2]
  ED50: 7.1 mg/kg
Mus musculus [3]
  Time: 486 s
Mus musculus [4]
  Time: 24 s
[5]
  LD50: 36300 µmol/kg

## CC(C)c1cccc(C(C)C)c1OC(=O)CCCOC(=O)CCCN1CCCC1.Cl
[1]
  selectivity ratio: 5.2
Mus musculus [2]
  ED50: 8.9 mg/kg
Mus musculus [3]
  Time: 534 s
Mus musculus [4]
  Time: 1 s
[5]
  LD50: 46400 µmol/kg

## CCCN(CCC)CCC(=O)Oc1c(C(C)C)cccc1C(C)C.Cl
[1]
  selectivity ratio: 3.8
Mus musculus [2]
  ED50: 15.2 mg/kg
Mus musculus [3]
  Time: 168 s
Mus musculus [4]
  Time: 5 s
[5]
  LD50: 57600 µmol/kg

## CC1CCN(CCCC(=O)OCCCC(=O)Oc2c(C(C)C)cccc2C(C)C)CC1.Cl
[1]
  selectivity ratio: 5.2
Mus musculus [2]
  ED50: 2.5 mg/kg
Mus musculus [3]
  Time: 337 s
Mus musculus [4]
  Time: 3 s
[5]
  LD50: 13100 µmol/kg

## CCN(CC)CC(=O)OCCCC(=O)Oc1c(C(C)C)cccc1C(C)C.Cl
[1]
  selectivity ratio: 4.8
Mus musculus [2]
  ED50: 11 mg/kg
Mus musculus [3]
  Time: 371 s
Mus musculus [4]
  Time: 20 s
[5]
  LD50: 52800 µmol/kg

## CC(C)c1cccc(C(C)C)c1OC(=O)CCN1CCCCC1.Cl
[1]
  selectivity ratio: 4.5
Mus musculus [2]
  ED50: 8.2 mg/kg
Mus musculus [3]
  Time: 152 s
Mus musculus [4]
  Time: 21 s
[5]
  LD50: 36900 µmol/kg

## CCN1CCN(CC(=O)OCCCC(=O)Oc2c(C(C)C)cccc2C(C)C)CC1.Cl
[1]
  selectivity ratio: 5
Mus musculus [2]
  ED50: 10.1 mg/kg
Mus musculus [3]
  Time: 193 s
Mus musculus [4]
  Time: 16 s
[5]
  LD50: 50500 µmol/kg
